Read-outs that look alike come from different tables or passages of the source. A value given as a limit tells only on which side of the number the result lay.

Here are results for 4 compounds from US20250152591A1, “TREATMENT OF HEMATOLOGICAL MALIGNANCIES WITH MENIN INHIBITORS AND P-GLYCOPROTEIN INHIBITORS” (Kura Oncology, Inc., priority 2022, published 2025).

For one data set, the target named is T1, Menin (Homo sapiens, UniProt O00255).
T1 sequence (O00255 1-610): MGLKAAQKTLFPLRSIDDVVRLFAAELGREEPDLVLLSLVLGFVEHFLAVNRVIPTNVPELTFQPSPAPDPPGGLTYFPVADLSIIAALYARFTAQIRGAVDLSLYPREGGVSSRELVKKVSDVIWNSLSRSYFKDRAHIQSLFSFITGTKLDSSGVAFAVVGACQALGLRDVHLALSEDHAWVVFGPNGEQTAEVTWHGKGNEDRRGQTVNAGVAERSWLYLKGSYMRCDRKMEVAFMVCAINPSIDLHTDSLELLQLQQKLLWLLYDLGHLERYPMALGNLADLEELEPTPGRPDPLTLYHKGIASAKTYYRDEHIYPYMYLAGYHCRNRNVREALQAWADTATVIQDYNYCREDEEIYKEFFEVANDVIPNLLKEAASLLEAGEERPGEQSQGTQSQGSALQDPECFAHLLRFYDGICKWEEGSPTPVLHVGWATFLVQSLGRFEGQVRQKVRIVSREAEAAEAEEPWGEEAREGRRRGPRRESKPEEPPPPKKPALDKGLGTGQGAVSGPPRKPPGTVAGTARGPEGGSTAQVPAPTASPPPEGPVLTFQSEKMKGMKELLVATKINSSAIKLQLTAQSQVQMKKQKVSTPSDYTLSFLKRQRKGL
In words: Menin binding, fluorescence polarization assay. Particulars: fluorescence polarization assay analogous to WO2017/161028, Example 6. The procedure: Menin binding was evaluated using an assay analogous to the fluorescence polarization assay described in PCT Publ. No. WO2017/161028, Example 6.
In general terms: Polarisation of emitted light reports the rotation of a fluorescent probe.

For the next data set, the system named is MV4;11-Control cell line. In words: CellTiter-Glo cell viability assay, MV4;11-Control. The data set is classed as cell-based. The arrangement: unit of the concentration uncertain. Particulars: second set of experiments. The procedure: (§1) The influence of efflux pumps on the antitumor activity of the test compounds at steady state (more clinically relevant) were evaluated using P-gp-transfected AML cells (MV4;11 cells) in 6-day viability assays.
(§2) A P-gp-expressing KMT2A(MLL)-rearranged cell line model was developed by lentiviral transduction of the MV4;11 parental cell line and then selection for either Luciferase ORF (MV4;11-Control) or P-gp ORF (MV4;11-PGP).
(§3) […] Cell viability was measured by CellTiter-Glo® Luminescent Cell Viability Assay (CTG assay, Promega Corp.) and % Viability was quantified by normalizing to the luminescence values of DMSO-only treated cells. The dose-response curves and IC50's were calculated using GraphPad Prism 9.4.1.
(§4) The measured luminescence in the live cells of the MV4;11-Control and MV4;11-PGP cells that were treated with Compound I only (+DMSO), Compound I+posaconazole […], and valspodar (1 mM) are shown in FIGS. 5A and 5B.
(§5) In a second set of experiments, MV4;11-Control and MV4;11-PGP cell lines were treated as described above with five menin inhibitors, including Compound I, SNDX-5613, Compound A, Compound B, and Compound C, at concentrations ranging from 0 to 1000 nM. All tested compounds dropped in potency due to the P-gp expression as shown in FIGS. 6A-6J and in Tables 5 and 6 (indicated by increased IC50 values between “MV4;11-Control (Compound+DMSO)” and “MV4;11-PGP (Compound+DMSO)” entries).
On the technique in general: In ATP-based viability assays light output follows the ATP content of the culture.

Another data set relates to MV4;11-PGP cell line. In words: CellTiter-Glo cell viability assay, MV4;11-PGP. The class given is cell-based. Further details: unit of the concentration uncertain. Particulars: second set of experiments. The method, then: as §1, §2, §3, §4, §5
The test system of a further data set is MOLM13-Control cell line. In words: Cell viability assay, MOLM13-Control. The class given is cell-based. Further details: unit of the concentration uncertain. Particulars: 168 h, 7 days. The procedure: (§6) The effects described above were investigated in an AML cell line, MOLM-13, which carries a KA4T2A (MLL)-rearrangement mutation. The P-gp expressing MOLM-13 cell line (MOLM13-PGP) and the Luciferase expressing MOLM-13 cell line (MOLM13-Control) were established by lentivirally transducing P-gp ORF or Luciferase ORF. Cells were plated and treated with test compound for 7 days.

The subject of a further data set is MOLM13-PGP cell line. In words: Cell viability assay, MOLM13-PGP. Particulars: 168 h, 7 days. The data set is classed as cell-based. The arrangement: unit of the concentration uncertain. The procedure:
as §6

The test system of data set [1] is OCI-AML3-Control cell line. The data set can be described thus: Cell viability assay, OCI-AML3-Control. The class given is cell-based. Further details: unit of the concentration uncertain. Conditions: 168 h, 7 days. The procedure:
(§7) A third set of experiments was conducted in the cell line OCI-AML3, which carries the W288Cfs*12 mutation in NPM protein. The P-gp expressing OCI-AML3 cell line (OCI-AML3-PGP) and the Luciferase expressing OC-AML3 cell line (OCI-AML3-Control) were established by lentivirally transducing P-gp ORF or Luciferase ORF. Cells were treated with Compound I or SNDX-5613 for 7 days to assess the IC50 values.

A further data set concerns OCI-AML3-PGP cell line. In words: Cell viability assay, OCI-AML3-PGP. The class given is cell-based. Further details: unit of the concentration uncertain. Particulars: 168 h, 7 days. The procedure:
as §7

Compound `Cc1c(CN2CCC(Nc3nc(N)nc4sc(CC(F)(F)F)cc34)CC2)ccc2c1cc(C#N)n2C[C@H](C)N1CCN(S(C)(=O)=O)CC1` [Compound IA] had an IC50 at Menin of 36.2 nM.

Turning to `CNc1nc(NC2CCN(Cc3ccc4c(cc(C#N)n4C[C@H](C)N4CCN(S(C)(=O)=O)CC4)c3C)CC2)c2cc([C@@H](O)C(F)(F)F)sc2n1` [Compound IB, 4-methyl-5-((4-((2-(methylamino)-6-((S)-2,2,2-trifluoro-1-hydroxyethyl)thieno[2,3-d]pyrimidin-4-yl)amino)piperidin-1-yl)methyl)-1-((S)-2-(4-(methylsulfonyl)piperazin-1-yl)propyl)-1H-indole-2-carbonitrile], the IC50 on Menin is 63.5 nM.

As to `CNc1nc(NC2CCN(Cc3ccc4c(cc(C#N)n4C[C@H](C)N4CCN(S(C)(=O)=O)CC4)c3C)CC2)c2cc([C@H](O)C(F)(F)F)sc2n1` [Compound IC, 4-methyl-5-((4-((2-(methylamino)-6-((R)-2,2,2-trifluoro-1-hydroxyethyl)thieno[2,3-d]pyrimidin-4-yl)amino)piperidin-1-yl)methyl)-1-((S)-2-(4-(methylsulfonyl)piperazin-1-yl)propyl)-1H-indole-2-carbonitrile], the IC50 at Menin is 401 nM.

On to `CCN(C(=O)c1cc(F)ccc1Oc1cncnc1N1CC2(CCN(C[C@H]3CC[C@H](NS(=O)(=O)CC)CC3)CC2)C1)C(C)C` [SNDX-5613], for which the IC50 is 8.55 nM in the data set on MV4;11-Control cell line (144 h, 0 to 1000 nM, Table 5, read-out: IC50 MV4;11-Control (Compound + DMSO)); 8.58 nM in the data set on MV4;11-Control cell line (144 h, 0 to 1000 nM, Table 6, read-out: IC50 MV4;11-Control (Compound + DMSO)); 7.33 nM with MV4;11-Control cell line (posaconazole (1.5 (unit uncertain)), Table 5, read-out: IC50 MV4;11-Control (Compound + posaconazole)); 7.61 nM in the data set with MV4;11-Control cell line (valspodar (1 (unit uncertain)), Table 6, read-out: IC50 MV4;11-Control (Compound + valspodar)); 183 nM in the data set on MV4;11-PGP cell line (144 h, 0 to 1000 nM, Table 5, read-out: IC50 MV4;11-PGP (Compound + DMSO)); 173 nM in the data set with MV4;11-PGP cell line (144 h, 0 to 1000 nM, Table 6, read-out: IC50 MV4;11-PGP (Compound + DMSO)). For the same compound, the IC50 in the data set with MV4;11-PGP cell line (posaconazole (1.5 (unit uncertain)), Table 5, read-out: IC50 MV4;11-PGP (Compound + posaconazole)) was 17.1 nM; with MV4;11-PGP cell line (valspodar (1 (unit uncertain)), Table 6, read-out: IC50 MV4;11-PGP (Compound + valspodar)), 8.15 nM; in the data set with MOLM13-Control cell line (Table 7, read-out: IC50 MOLM13-Control (Compound + DMSO)) it was 30.1 nM; with MOLM13-Control cell line (Table 8, read-out: IC50 MOLM13-Control (compound + DMSO)) it was 28 nM; in the data set on MOLM13-Control cell line (posaconazole (1.5 (unit uncertain)), Table 7, read-out: IC50 MOLM13-Control (Compound + posaconazole)) it was 24.8 nM; with MOLM13-Control cell line (valspodar (1 (unit uncertain)), Table 8, read-out: IC50 MOLM13-Control (Compound + valspodar)) it was 29.5 nM. Also, the IC50 is over 900 nM in the data set on MOLM13-PGP cell line (Table 7, read-out: IC50 MOLM13-PGP (Compound + DMSO)); 38.6 nM in the data set with MOLM13-PGP cell line (posaconazole (1.5 (unit uncertain)), Table 7, read-out: IC50 MOLM13-PGP (Compound + posaconazole)); 37.1 nM in the data set on MOLM13-PGP cell line (valspodar (1 (unit uncertain)), Table 8, read-out: IC50 MOLM13-PGP (Compound + valspodar)); 25.7 nM in data set [1] (Table 9, read-out: IC50 OCI-AML3-Control (Compound + DMSO)); 26.4 nM in data set [1] (Table 10, read-out: IC50 OCI-AML3-Control (Compound + DMSO)); 38.8 nM in data set [1] (posaconazole (0.75 (unit uncertain)), Table 9, read-out: IC50 OCI-AML3-Control (Compound + posaconazole)). Besides, the IC50 is 41.5 nM in data set [1] (valspodar (1 (unit uncertain)), Table 10, read-out: IC50 OCI-AML3-Control (Compound + valspodar)); over 300 nM in the data set on OCI-AML3-PGP cell line (Table 9, read-out: IC50 OCI-AML3-PGP (Compound + DMSO)); 47.7 nM in the data set on OCI-AML3-PGP cell line (posaconazole (0.75 (unit uncertain)), Table 9, read-out: IC50 OCI-AML3-PGP (Compound + posaconazole)); 31.7 nM in the data set on OCI-AML3-PGP cell line (valspodar (1 (unit uncertain)), Table 10, read-out: IC50 OCI-AML3-PGP (Compound + valspodar)).

A word on the IC50: it is the midpoint of a concentration-inhibition curve.
